From patent US12077503B2, “Substituted cyclic amides and their use as herbicides” (FMC CORPORATION, priority 2015, dated 2024)

Tests used:
Assay type in all cases: in vivo
[1] = tested on: ryegrass, Italian (Italian ryegrass, Lolium multiflorum); assay: Test A postemergence; conditions: postemergence, 0 to 100 scale (0 no effect, 100 complete control)
Procedure, shortened: (§1)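 Treatment is preemergence as a directed soil spray after planting, or postemergence at the one- to two-leaf stage, with test chemical in a non-phytotoxic solvent mixture plus surfactant. Plants stay in the greenhouse about 10 d before visual injury scoring on a 0 to 100 scale versus untreated controls.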

[2] = tested on: Galium (catchweed bedstraw, Galium aparine); assay: Test A postemergence; conditions: postemergence, 0 to 100 scale (0 no effect, 100 complete control)
Procedure, shortened: as §1

[3] = tested on: ragweed (common ragweed, Ambrosia elatior); assay: Test A postemergence; conditions: postemergence, 0 to 100 scale (0 no effect, 100 complete control)
Procedure, shortened: as §1

[4] = tested on: blackgrass (Alopecurus myosuroides); assay: Test A postemergence; conditions: postemergence, 0 to 100 scale (0 no effect, 100 complete control)
Procedure, shortened: as §1

corn (Zea mays) = assay: Test A postemergence; conditions: postemergence, 0 to 100 scale (0 no effect, 100 complete control)
Procedure, shortened: as §1

Kochia (Kochia scoparia) [5] = assay: Test A postemergence; conditions: postemergence, 0 to 100 scale (0 no effect, 100 complete control)
Procedure, shortened: as §1

[6] = tested on: wheat (Triticum aestivum); assay: Test A postemergence; conditions: postemergence, 0 to 100 scale (0 no effect, 100 complete control)
Procedure, shortened: as §1

[7] = tested on: barnyardgrass (Echinochloa crus-galli); assay: Test A postemergence; conditions: postemergence, 0 to 100 scale (0 no effect, 100 complete control)
Procedure, shortened: as §1

[8] = tested on: giant foxtail (Setaria faberii); assay: Test A postemergence; conditions: postemergence, 0 to 100 scale (0 no effect, 100 complete control)
Procedure, shortened: as §1

[9] = tested on: pigweed (Amaranthus retroflexus); assay: Test A postemergence; conditions: postemergence, 0 to 100 scale (0 no effect, 100 complete control)
Procedure, shortened: as §1

[10] = tested on: ryegrass, Italian (Italian ryegrass, Lolium multiflorum); assay: Test A preemergence
Procedure, shortened: as §1

[11] = tested on: ragweed (common ragweed, Ambrosia elatior); assay: Test A preemergence
Procedure, shortened: as §1

Kochia (Kochia scoparia) [12] = assay: Test A preemergence
Procedure, shortened: as §1

[13] = tested on: barnyardgrass (Echinochloa crus-galli); assay: Test A preemergence
Procedure, shortened: as §1

[14] = tested on: giant foxtail (Setaria faberii); assay: Test A preemergence
Procedure, shortened: as §1

[15] = tested on: pigweed (Amaranthus retroflexus); assay: Test A preemergence
[16] = tested on: ducksalad (Heteranthera limosa); assay: Test B flooded paddy test; conditions: Flood, 250 g ai/ha; 0 to 100 scale where 0 is no effect and 100 is complete control; 13 to 15 d
Procedure, shortened: (§2)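 Response scored visually against untreated controls, 0 = no effect and 100 = complete control, 13–15 d after treatment in the greenhouse. Compounds added to paddy water held 3 cm above soil surface. Treatment given at 2-leaf stage.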

[17] = tested on: sedge, umbrella (small-flower umbrella sedge, Cyperus difformis); assay: Test B flooded paddy test; conditions: Flood, 250 g ai/ha
Procedure, shortened: as §2

rice (Oryra sativa) = assay: Test B flooded paddy test; conditions: Flood, 250 g ai/ha; 0 to 100 scale where 0 is no effect and 100 is complete control; 13 to 15 d
Procedure, shortened: as §2

[18] = tested on: barnyardgrass (Echinochloa crus-galli); assay: Test B flooded paddy test; conditions: Flood, 250 g ai/ha; 0 to 100 scale where 0 is no effect and 100 is complete control; 13 to 15 d
Procedure, shortened: as §2

[19] = tested on: pigweed (Amaranthus retroflexus); assay: Test C preemergence; conditions: for Plant response rating (scale of 0 to 100), Pigweed: 0 is no effect, 100 is complete control; for Plant response rating, Pigweed: scale 0 to 100, 0 no effect, 100 complete control
Procedure, shortened: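 Visual 0 (no effect) to 100 (complete control) ratings versus controls, taken 13–15 d after treatment in the greenhouse; dash means no result. Compounds in a surfactant-containing non-phytotoxic solvent blend were applied preemergence to seeds in loam-sand soil or postemergence to 1- to 4-leaf plants (2–18 cm) in peat-based medium.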

[20] = 125 g ai/ha, visual rating after approx. 10 d
[21] = 500 g ai/ha, visual injury, approx. 10 d
[22] = 125 g ai/ha, Preemergence, visual injury after approximately 10 d, 0 to 100 scale where 0 is no effect and 100 is complete control
[23] = 500 g ai/ha, preemergence, 0 to 100 scale, 0 = no effect, 100 = complete control
[24] = 125 g ai/ha, visual injury after approximately 10 d
[25] = 125 g ai/ha, preemergence, visual rating after approx. 10 d, 0 to 100 scale where 0 is no effect and 100 is complete control

Compound | Plant response rating, Ryegrass, Italian [1, 21] | Plant response rating, Galium [2, 21] | Plant response rating, Ragweed [3, 21] | Plant response rating, Blackgrass [4, 20] | Plant response rating, Blackgrass [4, 21] | Plant response rating, Corn (corn (Zea mays); [21]) | Plant response rating, Kochia (Kochia (Kochia scoparia) [5]; [21]) | Plant response rating, Wheat [6, 21] | Plant response rating, Barnyardgrass [7, 20] | Plant response rating, Barnyardgrass [7, 21] | Plant response rating, Foxtail, Giant [8, 21] | Plant response rating, Pigweed [9, 21] | Plant response rating, Ryegrass, Italian [10, 23] | Plant response rating, Ragweed [11, 23] | Plant response rating, Kochia (Kochia (Kochia scoparia) [12]; [22]) | Plant response rating, Kochia (Kochia (Kochia scoparia) [12]; [23]) | Plant response rating, Barnyardgrass [13, 22] | Plant response rating, Barnyardgrass [13, 23] | Plant response rating, Foxtail, Giant [14, 22] | Plant response rating, Foxtail, Giant [14, 23] | other results
CN1CC(c2cc(F)cc(F)c2)C(C(=O)Nc2ccc(F)c(F)c2F)C1=O (centres unmarked) [Compound 646] | 70 | 50 | 40 | 70 | 80 | 80 | 70 | 70 | 90 | 90 | 90 | 20 | 90 | 70 | 60 | 70 | 90 | 90 | 90 | 100 | Plant response rating, Ryegrass, Italian [1, 20]: 60; Plant response rating, Galium [2, 20]: 40; Plant response rating, Ragweed [3, 20]: 0; Plant response rating, Corn (corn (Zea mays); [20]): 70; Plant response rating, Kochia (Kochia (Kochia scoparia) [5]; [20]): 60; Plant response rating, Wheat [6, 20]: 40; Plant response rating, Foxtail, Giant [8, 20]: 90; Plant response rating, Pigweed [9, 20]: 20; Plant response rating, Ryegrass, Italian [10, 22]: 60; Plant response rating, Ragweed [11, 22]: 60; Plant response rating, Pigweed [15, 22]: 60; Plant response rating, Pigweed [15, 23]: 70; Plant response rating, Ducksalad [16]: 98; Plant response rating, Sedge, Umbrella ([17]; 0 to 100 scale where 0 is no effect and 100 is complete control, 13 to 15 d): 0; Plant response rating, Rice (rice (Oryra sativa)): 25; Plant response rating, Barnyardgrass [18]: 80; Plant response rating (scale of 0 to 100), Pigweed ([19]; 31 g ai/ha): 0; Plant response rating, Pigweed ([19]; 62 g ai/ha): 10; Plant response rating, Pigweed ([19]; 125 g ai/ha): 65; Plant response rating, Pigweed ([19]; 250 g ai/ha): 75
CN1CC(c2ccc(C(C)(F)F)cc2)C(C(=O)Nc2cccc(F)c2F)C1=O (centres unmarked) [Compound 690] | 60 | 70 | 70 | 60 | 70 | 80 | 70 | 60 | 80 | 80 | 80 | 70 | 70 | 80 | 80 | 90 | 90 | 90 | 90 | 90 | Plant response rating, Ryegrass, Italian [1, 24]: 50; Plant response rating, Galium [2, 24]: 70; Plant response rating, Ragweed [3, 24]: 60; Plant response rating, Corn (corn (Zea mays); [24]): 70; Plant response rating, Kochia (Kochia (Kochia scoparia) [5]; [24]): 50; Plant response rating, Wheat [6, 24]: 50; Plant response rating, Foxtail, Giant [8, 24]: 80; Plant response rating, Pigweed [9, 24]: 60; Plant response rating, Ryegrass, Italian [10, 25]: 60; Plant response rating, Ragweed [11, 25]: 70; Plant response rating, Pigweed [15, 25]: 80; Plant response rating, Pigweed [15, 23]: 90; Plant response rating, Ducksalad [16]: 75; Sedge, Umbrella plant response rating ([17]; scale of 0 to 100 where 0 is no effect and 100 is complete control): 0; Plant response rating, Rice (rice (Oryra sativa)): 0; Plant response rating, Barnyardgrass [18]: 50; Plant response rating (scale of 0 to 100), Pigweed ([19]; 8 g ai/ha): 50; Plant response rating (scale of 0 to 100), Pigweed ([19]; 16 g ai/ha): 60; Plant response rating (scale of 0 to 100), Pigweed ([19]; 31 g ai/ha): 75; Plant response rating, Pigweed ([19]; 62 g ai/ha): 90
